Measured values taken from US20210255193A1, “LYSINE REACTIVE PROBES AND USES THEREOF” (The Scripps Research Institute, priority 2017, published 2021).

Experiments:
Assay in all cases: competitive isoTOP-ABPP
Type in all cases: binding
STRN3 Striatin-3 = biological target: T1, STRN3 Striatin-3 (Homo sapiens, UniProt Q13033); conditions: 50 uM, in vitro; for R value (DMSO/fragment) for probe 1 labeling: Q13033_K755; for R value (DMSO/fragment) for probe 1 labeling / isoTOP-ABPP reactivity ratio at lysine Q13033_K755: 231 sol; for isoTOP-ABPP ratio (R) at liganded lysine Q13033_K755: sol, 231
T1 construct: isoTOP-ABPP experiments performed in cell lysates (in vitro); endogenous in cells; host or cells: soluble proteome of human cancer cell lines (MDA-MB-231, Ramos, Jurkat)
T1 sequence (Q13033 1-797): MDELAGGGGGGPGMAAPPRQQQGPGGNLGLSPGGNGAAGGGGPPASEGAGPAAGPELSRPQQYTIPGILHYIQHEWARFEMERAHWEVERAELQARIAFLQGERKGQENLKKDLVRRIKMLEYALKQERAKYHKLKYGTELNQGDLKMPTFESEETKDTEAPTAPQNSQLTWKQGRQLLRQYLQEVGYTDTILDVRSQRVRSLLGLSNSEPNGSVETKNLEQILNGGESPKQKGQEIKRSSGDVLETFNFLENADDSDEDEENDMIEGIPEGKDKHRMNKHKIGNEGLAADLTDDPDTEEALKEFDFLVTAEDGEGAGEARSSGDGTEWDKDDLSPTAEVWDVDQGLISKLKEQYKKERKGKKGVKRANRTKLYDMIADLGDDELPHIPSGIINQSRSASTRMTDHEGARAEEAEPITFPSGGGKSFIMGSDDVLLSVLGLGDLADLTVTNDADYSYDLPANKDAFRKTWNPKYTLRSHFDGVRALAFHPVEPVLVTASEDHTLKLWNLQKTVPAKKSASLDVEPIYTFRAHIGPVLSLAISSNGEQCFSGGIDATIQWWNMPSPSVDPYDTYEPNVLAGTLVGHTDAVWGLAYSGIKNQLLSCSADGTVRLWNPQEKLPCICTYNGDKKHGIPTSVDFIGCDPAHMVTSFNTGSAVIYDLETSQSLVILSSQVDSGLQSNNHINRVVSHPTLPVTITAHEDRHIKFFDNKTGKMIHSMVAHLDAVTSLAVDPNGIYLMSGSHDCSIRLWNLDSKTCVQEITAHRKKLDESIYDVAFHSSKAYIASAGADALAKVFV
Method: (§1) In vitro covalent fragment treatment for isoTOP-ABPP. All compounds were made up as solutions in DMSO (100×) and were used at a final concentration of 50 μM for activated esters and 100 μM for guanidinylating agents. For each profiling sample, 0.5 ml of lysate was treated with 5 μl of the 100× compound stock solution or 5 μl of DMSO. Samples were treated with activated esters for
(§2) STP-alkyne labeling and click chemistry. For concentration-dependent reactivity measurements by isoTOP-ABPP, 0.5 ml proteome aliquots were treated at ambient temperature with 1 mM STP-alkyne 1 (5 μl of 100 mM stock in DMSO) and 0.1 mM STP alkyne 1 (5 μl of 10 mM stock in DMSO), respectively. For competitive isoTOP-ABPP, after in vitro fragment treatment (detailed above), the samples were labeled for 1 h at ambient temperature with 0.1 mM STP-alkyne 1 (5 μl of 10 mM stock in DMSO). Samples were conjugated by copper-mediated azide-alkyne cycloaddition (CuAAC) to either the light (1 mM STP-alkyne or fragment treated) or heavy (0.1 mM STP-alkyne or DMSO treated) TEV tags (10 μl of 5 mM stocks in DMSO, final concentration=100 μM) using tris(2-carboxyethyl)phosphine hydrochloride
(§3) R value calculation and processing. The ratios of light and heavy MS1 peaks for each unique peptide were quantified with a CIMAGE software using default parameters (3 MS1 acquisitions per peak and signal to noise threshold set to 2.5). For reactivity measurements by isoTOP-ABPP, the R value was calculated from the ratio of MS1 peak areas, comparing the 1 mM STP alkyne sample (light TEV tag) with the 0.1 mM STP alkyne sample (heavy TEV tag). For competitive isoTOP-ABPP, the R value was calculated from the ratio of MS1 peak areas, comparing the DMSO treated sample (heavy TEV tag) with the compound treated sample (light TEV tag). […] Ratios for unique peptide entries are calculated for each experiment; overlapping peptides with the same modified lysine (for example, different charge states, MudPIT chromatographic steps or tryptic termini) are grouped together and the median ratio is reported as the final ratio (R). The peptide ratios reported by CIMAGE were further filtered to ensure the removal or correction of low-quality ratios in each individual data set. The quality filters applied were the following: removal of half tryptic peptides; for ratios with high standard deviations from the median (90% of the median or above) the lowest ratio was taken instead of the median; removal of peptides with R=20 and only a single MS2 event triggered during the elution of the parent ion; manual annotation of all the peptides with ratios of 20, removing any peptides with low quality elution profiles that remained after the previous curation steps (only done for competitive isoTOP-ABPP).
(§4) Cross-data processing for fragment screening. For compound treated samples, biological replicates of the same condition were averaged, if the standard deviation was below 60% of the mean; otherwise, for lysines with at least one R value <4 for a particular compound, the lowest value of the ratio set was taken. For lysines, where all R values for a particular compound were ≥4, the average was reported. For peptides containing several possible modified lysines, the lysine with the highest number of quantification events was used for analysis and the remaining, redundant peptides were reported as alternative modification sites. Peptides included in the aggregate dataset (those used for further bioinformatics and statistical analyses) were required to have been quantified in 2 experiments for competitive isoTOP-ABPP. Lysines were categorized as liganded, if they had at least one ratio R≥4 (hit fragments). For liganded lysines with R=20 for all liganding events, lysines were required to have been quantified with R=20 in two separate experiments and were further required to have been quantified with R<20 in one additional experiment.

FAH Fumarylacetoacetase = biological target: T2, FAH Fumarylacetoacetase (Homo sapiens, UniProt P16930); conditions: 50 uM, in vitro; for R value (DMSO/fragment) for probe 1 labeling: P16930_K241; for R value (DMSO/fragment) for probe 1 labeling / isoTOP-ABPP reactivity ratio at lysine P16930_K241: 231 sol; for isoTOP-ABPP ratio (R) at liganded lysine P16930_K241: sol, 231
T2 construct: isoTOP-ABPP experiments performed in cell lysates (in vitro); endogenous in cells; host or cells: soluble proteome of human cancer cell lines (MDA-MB-231; Ramos and Jurkat also prepared)
T2 sequence (P16930 1-419): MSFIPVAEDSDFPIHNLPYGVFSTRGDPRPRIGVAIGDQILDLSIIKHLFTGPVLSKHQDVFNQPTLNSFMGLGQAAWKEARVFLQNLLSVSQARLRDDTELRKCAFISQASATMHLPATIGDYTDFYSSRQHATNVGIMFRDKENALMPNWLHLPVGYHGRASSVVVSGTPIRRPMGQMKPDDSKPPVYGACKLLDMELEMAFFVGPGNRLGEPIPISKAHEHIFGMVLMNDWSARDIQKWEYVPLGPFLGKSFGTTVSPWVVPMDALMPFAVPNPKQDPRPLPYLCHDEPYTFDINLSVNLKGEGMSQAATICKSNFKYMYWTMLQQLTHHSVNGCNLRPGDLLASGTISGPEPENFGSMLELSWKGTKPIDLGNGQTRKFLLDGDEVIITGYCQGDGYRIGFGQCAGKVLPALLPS
Method: as §1, §2, §3, §4

DCTN2 Dynactin subunit 2 = biological target: T3, DCTN2 Dynactin subunit 2 (Homo sapiens, UniProt Q13561); conditions: 50 uM, in vitro; for R value (DMSO/fragment) for probe 1 labeling: Q13561_K175; for R value (DMSO/fragment) for probe 1 labeling / isoTOP-ABPP reactivity ratio at lysine Q13561_K175: 231 sol
T3 construct: isoTOP-ABPP experiments performed in cell lysates (in vitro); endogenous in cells; host or cells: soluble proteome of human cancer cell lines (MDA-MB-231, Ramos, Jurkat)
Method: as §1, §2, §3, §4

T3 sequence (Q13561 whole entry, the tested form may be a part): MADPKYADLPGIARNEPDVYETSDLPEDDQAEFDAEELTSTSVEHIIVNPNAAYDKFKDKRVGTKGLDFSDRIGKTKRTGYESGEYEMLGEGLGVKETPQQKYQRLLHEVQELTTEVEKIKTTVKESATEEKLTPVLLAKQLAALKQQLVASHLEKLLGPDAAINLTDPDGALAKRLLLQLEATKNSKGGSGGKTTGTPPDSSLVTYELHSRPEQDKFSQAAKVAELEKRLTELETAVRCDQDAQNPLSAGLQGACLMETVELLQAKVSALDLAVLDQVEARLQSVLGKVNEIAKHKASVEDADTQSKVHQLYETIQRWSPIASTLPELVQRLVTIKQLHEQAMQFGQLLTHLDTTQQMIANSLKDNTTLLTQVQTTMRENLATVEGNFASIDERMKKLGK

SMILES | isoTOP-ABPP reactivity ratio at lysine Q13033_K755 (STRN3 Striatin-3) | isoTOP-ABPP reactivity ratio at lysine P16930_K241 (FAH Fumarylacetoacetase) | isoTOP-ABPP reactivity ratio at lysine Q13561_K175 (DCTN2 Dynactin subunit 2) | also measured
O=C(CCc1cn(-c2ccccc2)nc1-c1ccccc1)Oc1c(F)c(F)c(F)c(F)c1F [fragment 19, Pentafluorophenyl 3-(1,3-diphenyl-1H-pyrazol-4-yl)propanoate] | – | – | – | R value (DMSO/fragment) for probe 1 labeling (STRN3 Striatin-3): 0.9; R value (DMSO/fragment) for probe 1 labeling (FAH Fumarylacetoacetase): 2.5
O=C(Oc1c(F)c(F)c(F)c(F)c1F)C(c1ccccc1)c1ccccc1 [fragment 20, Pentafluorophenyl 2,2-diphenylacetate] | – | – | – | R value (DMSO/fragment) for probe 1 labeling (STRN3 Striatin-3): 0.9; R value (DMSO/fragment) for probe 1 labeling (DCTN2 Dynactin subunit 2): 1.0; R value (DMSO/fragment) for probe 1 labeling (FAH Fumarylacetoacetase): 1.0
O=C(Oc1c(F)c(F)c(F)c(F)c1F)c1cc(C(F)(F)F)cc(C(F)(F)F)c1 [fragment 21, Pentafluorophenyl 3,5-bis(trifluoromethyl)benzoate] | – | – | – | R value (DMSO/fragment) for probe 1 labeling (STRN3 Striatin-3): 0.9; R value (DMSO/fragment) for probe 1 labeling (DCTN2 Dynactin subunit 2): 0.9; R value (DMSO/fragment) for probe 1 labeling (FAH Fumarylacetoacetase): 2.0
Cn1cc(CC(=O)Oc2c(F)c(F)c(F)c(F)c2F)c2ccccc21 [fragment 22, Pentafluorophenyl 2-(1-methyl-1H-indol-3-yl)acetate] | – | – | – | R value (DMSO/fragment) for probe 1 labeling (STRN3 Striatin-3): 1.0; R value (DMSO/fragment) for probe 1 labeling (DCTN2 Dynactin subunit 2): 1.7; R value (DMSO/fragment) for probe 1 labeling (FAH Fumarylacetoacetase): 3.0
COc1cc(CCC(=O)Oc2c(F)c(F)c(F)c(F)c2F)cc(OC)c1OC [fragment 23, Pentafluorophenyl 3-(3,4,5-trimethoxyphenyl)propanoate] | – | – | – | R value (DMSO/fragment) for probe 1 labeling (STRN3 Striatin-3): 1.2; R value (DMSO/fragment) for probe 1 labeling (DCTN2 Dynactin subunit 2): 1.1; R value (DMSO/fragment) for probe 1 labeling (FAH Fumarylacetoacetase): 2.8
O=C(Oc1c(F)c(F)c(F)c(F)c1F)C1CCN(C(=O)OCc2ccccc2)CC1 [fragment 24, 1-Benzyl 4-(pentafluorophenyl) piperidine-1,4-dicarboxylate] | 1.1 | 1.1 | 1.3 | –
O=C(CCc1cn(-c2ccccc2)nc1-c1ccccc1)Oc1ccc([N+](=O)[O-])cc1[N+](=O)[O-] [fragment 29, 2,4-Dinitrophenyl 3-(1,3-diphenyl-1H-pyrazol-4-yl)propanoate] | 1.1 | 1.7 | 1.3 | –
O=C(Oc1ccc([N+](=O)[O-])cc1[N+](=O)[O-])C(c1ccccc1)c1ccccc1 [fragment 30, 2,4-Dinitrophenyl 2,2-diphenylacetate] | 2.0 | 2.7 | 3.4 | –
O=C(Oc1ccc([N+](=O)[O-])cc1[N+](=O)[O-])c1cc(C(F)(F)F)cc(C(F)(F)F)c1 [fragment 31, 2,4-Dinitrophenyl 3,5-bis(trifluoromethyl)benzoate] | 1.4 | 20.0 | 1.0 | –
Cn1cc(CC(=O)Oc2ccc([N+](=O)[O-])cc2[N+](=O)[O-])c2ccccc21 [fragment 32, 2,4-Dinitrophenyl 2-(1-methyl-1H-indol-3-yl)acetate] | 2.7 | 2.2 | 4.4 | –
O=C(CCc1coc2cc(F)ccc2c1=O)Oc1ccc([N+](=O)[O-])cc1[N+](=O)[O-] [fragment 36, 2,4-Dinitrophenyl 3-(7-fluoro-4-oxo-4H-chromen-3-yl)propanoate] | – | – | – | isoTOP-ABPP ratio (R) at liganded lysine Q13033_K755 (STRN3 Striatin-3): 1.3; isoTOP-ABPP ratio (R) at liganded lysine P16930_K241 (FAH Fumarylacetoacetase): 3.6
O=C(CC12CC3CC(CC(C3)C1)C2)Oc1ccc([N+](=O)[O-])cc1[N+](=O)[O-] [fragment 38, 2,4-Dinitrophenyl 2-(adamantan-1-yl)acetate] | – | – | – | isoTOP-ABPP ratio (R) at liganded lysine Q13033_K755 (STRN3 Striatin-3): 0.9; isoTOP-ABPP ratio (R) at liganded lysine P16930_K241 (FAH Fumarylacetoacetase): 1.0
CC(=O)Oc1ccc([N+](=O)[O-])cc1[N+](=O)[O-] [fragment 43, 2,4-Dinitrophenyl acetate] | – | – | – | isoTOP-ABPP ratio (R) at liganded lysine Q13561_K175 (DCTN2 Dynactin subunit 2; sol, 231): 0.6; isoTOP-ABPP ratio (R) at liganded lysine P16930_K241 (FAH Fumarylacetoacetase): 1.4

Continued, in another order:

isoTOP-ABPP reactivity ratio at lysine Q13033_K755 (STRN3 Striatin-3) | isoTOP-ABPP reactivity ratio at lysine P16930_K241 (FAH Fumarylacetoacetase) | SMILES | isoTOP-ABPP reactivity ratio at lysine Q13561_K175 (DCTN2 Dynactin subunit 2) | also measured
1.0 | 5.2 | O=C(Oc1c(F)c(F)c(F)c(F)c1F)c1ccc2ccccc2n1 [fragment 25, Pentafluorophenyl quinoline-2-carboxylate] | 1.1 | –
1.0 | 5.0 | O=C(CCc1coc2cc(F)ccc2c1=O)Oc1c(F)c(F)c(F)c(F)c1F [fragment 26, Pentafluorophenyl 3-(7-fluoro-4-oxo-4H-chromen-3-yl)propanoate] | 1.6 | –
1.0 | 1.8 | O=C(CN1C(=O)c2ccccc2C1=O)Oc1c(F)c(F)c(F)c(F)c1F [fragment 27, Pentafluorophenyl 2-(1,3-dioxoisoindolin-2-yl)acetate] | 1.2 | –
0.9 | 2.5 | CCn1cc(C(=O)Oc2c(F)c(F)c(F)c(F)c2F)c(=O)c2ccc(C)nc21 [fragment 28, Pentafluorophenyl 1-ethyl-7-methyl-4-oxo-1,4-dihydro-1,8-naphthyridine-3-carboxylate] | – | –
